Source: PubChem BioAssay AID248 (DTP/NCI, 2004)
Several values for one entry are separate records, joined by “and”; a condition that tells them apart may be missing. Identical values can stand only once. Toxic doses and inconclusive results are not listed. No stated cut-off is given here; in the data, active means T/C of 150% or more; inactive means T/C below 125%.

Test system: L1210 leukemia ip in BDF1 mice, survival T/C
Assay: NCI In Vivo Anticancer Drug Screen. Data for tumor model L1210 Leukemia (intraperitoneal) in B6D2F1 (BDF1) mice
Conditions: endpoint: mean survival time, higher = longer survival
Outline: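 In this screen, tumor-bearing mice given compound are compared to those given vehicle, and their survival values are reported as a treated-to-control quotient.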

[1] = dose: 100.0 mg/kg/injection, schedule: Q01DX001 (ip), vehicle: saline
[2] = dose: 200.0 mg/kg/injection, schedule: Q01DX001 (ip), vehicle: saline
[3] = dose: 100.0 mg/kg/injection, schedule: Q01DX009 (ip), vehicle: saline with Tween-80
[4] = dose: 100.0 mg/kg/injection, schedule: Q04DX003 (ip), vehicle: saline with Tween-80
[5] = dose: 200.0 mg/kg/injection, schedule: Q01DX009 (ip), vehicle: saline with Tween-80
[6] = dose: 200.0 mg/kg/injection, schedule: Q04DX003 (ip), vehicle: saline with Tween-80
[7] = dose: 400.0 mg/kg/injection, schedule: Q01DX009 (ip), vehicle: saline with Tween-80
[8] = dose: 400.0 mg/kg/injection, schedule: Q04DX003 (ip), vehicle: saline with Tween-80
[9] = dose: 100.0 mg/kg/injection, schedule: Q04DX003 (ip), vehicle: Klucel (hydroxypropylcellulose) (HPC)
[10] = dose: 200.0 mg/kg/injection, schedule: Q04DX003 (ip), vehicle: Klucel (hydroxypropylcellulose) (HPC)
[11] = dose: 100.0 mg/kg/injection, schedule: Q01DX001 (ip), vehicle: Klucel (hydroxypropylcellulose) (HPC)
[12] = dose: 100.0 mg/kg/injection, schedule: Q01DX009 (ip), vehicle: gum acacia
[13] = dose: 100.0 mg/kg/injection, schedule: Q04DX003 (ip), vehicle: gum acacia
[14] = dose: 200.0 mg/kg/injection, schedule: Q01DX009 (ip), vehicle: gum acacia
[15] = dose: 200.0 mg/kg/injection, schedule: Q04DX003 (ip), vehicle: gum acacia
[16] = dose: 400.0 mg/kg/injection, schedule: Q04DX003 (ip), vehicle: gum acacia
[17] = dose: 50.0 mg/kg/injection, schedule: Q01DX009 (ip), vehicle: Klucel (hydroxypropylcellulose) (HPC)
[18] = dose: 100.0 mg/kg/injection, schedule: Q01DX009 (ip), vehicle: Klucel (hydroxypropylcellulose) (HPC)
[19] = dose: 200.0 mg/kg/injection, schedule: Q01DX009 (ip), vehicle: Klucel (hydroxypropylcellulose) (HPC)
[20] = dose: 25.0 mg/kg/injection, schedule: Q01DX009 (ip), vehicle: Klucel (hydroxypropylcellulose) (HPC)

Measured: T/C

CCCCC1(CC)C(=O)NC(=S)NC1=O
inactive: [1] 114 % of control | [2] 104 % of control

CC1(C)C(c2ccccc2)=NN=C1c1ccccc1
inactive: [3] 93 % of control | [4] 90 % of control | [5] 91 % of control | [6] 104 % of control | [7] 112 % of control | [8] 104 % of control

CCCCCC(Oc1ccc(Cl)cc1)C(=O)O (configuration not stated)
inactive: [9] 104 % of control | [10] 98 % of control

CN(C)C(=S)[S][Pb]([c]1ccccc1)([c]1ccccc1)[c]1ccccc1
inactive: dose: 5.0 mg/kg/injection, schedule: Q01DX001 (ip), vehicle: steriod suspending solution 104 % of control | dose: 10.0 mg/kg/injection, schedule: Q01DX001 (ip), vehicle: steriod suspending solution 100 % of control | dose: 20.0 mg/kg/injection, schedule: Q01DX001 (ip), vehicle: steriod suspending solution 105 % of control | dose: 40.0 mg/kg/injection, schedule: Q01DX001 (ip), vehicle: steriod suspending solution 96 % of control | dose: 80.0 mg/kg/injection, schedule: Q01DX001 (ip), vehicle: steriod suspending solution 102 % of control

O=C1CCC(Cc2cccc3ccccc23)N1 (configuration not stated)
inactive: dose: 100.0 mg/kg/injection, schedule: Q04DX002 (ip), vehicle: saline with Tween-80 97 % of control | dose: 200.0 mg/kg/injection, schedule: Q04DX002 (ip), vehicle: saline with Tween-80 91 % of control | dose: 400.0 mg/kg/injection, schedule: Q04DX002 (ip), vehicle: saline with Tween-80 94 % of control

Brc1ccc(Br)c(-c2nnc(-c3cccc4ccccc34)o2)c1
inactive: [1] 86 % of control

CSc1ccc(NC(=O)Nc2cc(C)ccc2N=Nc2ccc(C)cc2)cc1
inactive: dose: 100.0 mg/kg/injection, schedule: Q01DX009 (ip), vehicle: other 89 % of control | dose: 200.0 mg/kg/injection, schedule: Q01DX009 (ip), vehicle: other 102 % of control | dose: 400.0 mg/kg/injection, schedule: Q01DX009 (ip), vehicle: other 96 % of control

O=C(O)C1=NNC(C(=O)O)=NN1
inactive: [11] 92 % of control | dose: 200.0 mg/kg/injection, schedule: Q01DX001 (ip), vehicle: Klucel (hydroxypropylcellulose) (HPC) 100 % of control | dose: 400.0 mg/kg/injection, schedule: Q01DX001 (ip), vehicle: Klucel (hydroxypropylcellulose) (HPC) 104 % of control

O=C(O)CCC(C(=O)O)N1C(=O)C2C3CCC(C3)C2C1=O (configuration not stated)
inactive: dose: 25.0 mg/kg/injection, schedule: Q04DX003 (ip), vehicle: saline with Tween-80 93 % of control | dose: 50.0 mg/kg/injection, schedule: Q04DX003 (ip), vehicle: saline with Tween-80 96 % of control | [4] 93 % of control and 98 % of control | [6] 95 % of control | [8] 98 % of control

CCOC(=O)N1c2ccc(Cl)cc2C=CC1C#N (configuration not stated)
inactive: [12] 91 % of control | [13] 103 % of control | [14] 91 % of control | [15] 97 % of control | [16] 92 % of control

CCC(=O)c1ccccc1N
inactive: [3] 97 % of control | [5] 105 % of control | [7] 92 % of control

Nc1nc(N)c(-c2ccc(Cl)c(Cl)c2)c(COc2ccc(CCNS(=O)(=O)c3ccc(S(=O)(=O)F)cc3)cc2)n1
inactive: dose: 25.0 mg/kg/injection, schedule: Q01DX001 (ip), vehicle: Klucel (hydroxypropylcellulose) (HPC) 96 % of control | dose: 50.0 mg/kg/injection, schedule: Q01DX001 (ip), vehicle: Klucel (hydroxypropylcellulose) (HPC) 102 % of control | [11] 96 % of control

[CH3][Pb]([CH3])([CH3])[O]C(=O)CCl
inactive: dose: 0.39 mg/kg/injection, schedule: Q01DX009 (ip), vehicle: saline with Tween-80 97 % of control | dose: 0.78 mg/kg/injection, schedule: Q01DX009 (ip), vehicle: saline with Tween-80 97 % of control | dose: 1.56 mg/kg/injection, schedule: Q01DX009 (ip), vehicle: saline with Tween-80 95 % of control and 115 % of control

O=[N+]([O-])c1ccc(C[N+]2(CCC[N+]3(Cc4ccc([N+](=O)[O-])cc4)CCCC3)CCCC2)cc1
inactive: dose: 9.38 mg/kg/injection, schedule: Q01DX001 (ip), vehicle: other 107 % of control | dose: 18.75 mg/kg/injection, schedule: Q01DX001 (ip), vehicle: other 105 % of control

COc1ccc2c(ccc3c2ncc2c(=O)[nH][nH]c23)c1
inactive: [17] 92 % of control | [18] 92 % of control | [19] 92 % of control

CC(Cc1ccccc1)NC(=O)CCNNC(=O)c1ccncc1 (configuration not stated)
inactive: dose: 12.5 mg/kg/injection, schedule: Q01DX009 (ip), vehicle: Klucel (hydroxypropylcellulose) (HPC) 96 % of control | [20] 100 % of control | [17] 103 % of control | dose: 50.0 mg/kg/injection, schedule: Q04DX003 (ip), vehicle: Klucel (hydroxypropylcellulose) (HPC) 98 % of control | [18] 100 % of control | [9] 96 % of control | [19] 91 % of control | [10] 88 % of control

O=C1CCSC1
inactive: dose: 50.0 mg/kg/injection, schedule: Q01DX009 (ip), vehicle: saline with Tween-80 87 % of control | [3] 98 % of control | [5] 98 % of control

N#CC(Nc1ccccc1C(N)=O)c1ccccc1 (configuration not stated)
inactive: dose: 100.0 mg/kg/injection, schedule: Q01DX009 (ip), vehicle: saline 95 % of control | dose: 200.0 mg/kg/injection, schedule: Q01DX009 (ip), vehicle: saline 106 % of control | dose: 400.0 mg/kg/injection, schedule: Q01DX009 (ip), vehicle: saline 91 % of control

CC(=O)NC1(C#N)c2ccccc2-c2ccccc21
inactive: dose: 50.0 mg/kg/injection, schedule: Q01DX001 (ip), vehicle: carboxymethylcellulose (CMC) 104 % of control | dose: 100.0 mg/kg/injection, schedule: Q01DX001 (ip), vehicle: carboxymethylcellulose (CMC) 104 % of control | dose: 200.0 mg/kg/injection, schedule: Q01DX001 (ip), vehicle: carboxymethylcellulose (CMC) 102 % of control | dose: 400.0 mg/kg/injection, schedule: Q01DX001 (ip), vehicle: carboxymethylcellulose (CMC) 104 % of control

COc1cc(C#N)ccc1O
inactive: [12] 106 % of control | [13] 103 % of control | [14] 106 % of control | [15] 100 % of control | dose: 400.0 mg/kg/injection, schedule: Q01DX009 (ip), vehicle: gum acacia 90 % of control | [16] 94 % of control

CCN1CCC2CN(C(=S)Nc3ccccc3)CCN2C1=O (configuration not stated)
inactive: [4] 97 % of control | [6] 94 % of control | [8] 91 % of control

CNS(=O)(=O)c1ccc(NC(=O)CI)cc1
inactive: dose: 3.0 mg/kg/injection, schedule: Q01DX009 (ip), vehicle: Klucel (hydroxypropylcellulose) (HPC) 112 % of control | dose: 6.0 mg/kg/injection, schedule: Q01DX009 (ip), vehicle: Klucel (hydroxypropylcellulose) (HPC) 96 % of control | dose: 12.0 mg/kg/injection, schedule: Q01DX009 (ip), vehicle: Klucel (hydroxypropylcellulose) (HPC) 108 % of control | dose: 12.5 mg/kg/injection, schedule: Q01DX001 (ip), vehicle: other 96 % of control | dose: 12.5 mg/kg/injection, schedule: Q04DX003 (ip), vehicle: other 93 % of control | dose: 25.0 mg/kg/injection, schedule: Q01DX001 (ip), vehicle: other 96 % of control | dose: 50.0 mg/kg/injection, schedule: Q01DX001 (ip), vehicle: other 88 % of control

CC1CC(C)(C)OCO1 (configuration not stated)
inactive: [9] 100 % of control | [10] 93 % of control | dose: 400.0 mg/kg/injection, schedule: Q04DX003 (ip), vehicle: Klucel (hydroxypropylcellulose) (HPC) 86 % of control

NC(Cc1cnc(N=Nc2ccc(S(N)(=O)=O)cc2)[nH]1)C(=O)O (configuration not stated)
inactive: [17] 100 % of control | [18] 93 % of control | [19] 93 % of control

CN=NNc1ccc(C)cc1
inactive: [20] 89 % of control | dose: 50.0 mg/kg/injection, schedule: Q01DX001 (ip), vehicle: saline 108 % of control | [17] 105 % of control and 117 % of control | [1] 108 % of control | [18] 102 % of control and 120 % of control | dose: 150.0 mg/kg/injection, schedule: Q01DX009 (ip), vehicle: Klucel (hydroxypropylcellulose) (HPC) 113 % of control | [2] 116 % of control | [19] 99 % of control and 91 % of control
